For 28 molecules, EC50 and IC50 results are on record in US11179397B2, “Imidazopyrimidine derivatives” (Gilead Sciences, Inc., priority 2018, dated 2021).

For the first test, the system named is NCI-H358 cells. Description: NCI-H358 3D tumor spheroid growth inhibition. The format is cell-based. The conditions noted are these: Homo sapiens, NCI-H358, 168 h, 3D spheroids, 7 days, 3D CellTiter Glo; cellular IC50 designated EC50; read-out: H358 EC50. From the text: SHP-2 Cell Based Assay: […] Materials NCI-H358 cell line was purchased from [NT] number ATCC CRL-5807) (Manassas, Va.). RPMI-1640 (Catalog number 10-040-CM) was from Corning Cellgro (Manassas, Va.), Fetal Bovine Serum (FBS) (Catalog number SH30071.03) was from HyClone (Logan, Utanh), and 100× Penicillin/Streptomycin/L-Glutamine stock (Catalog no. 30-009-CI) and 384-well ULA plates (Catalog number 3830) were from Corning (Fremont, Calif.). Method […] At the day of assay, the cells were trypsinized and seeded at 1000 cells/70 μl/well in 384-well ULA plates and incubated at 37° C. incubator with 5% CO2 to allow spheroids to form. […] The plates were incubated for additional 7 days. Then 35 μl of medium from each well was removed, and replaced with 35 μl of 3D CellTiter Glo reagent from Promega. The wells were mixed by pipetting up and down with Biomek FX for 15 times to induce cell lysis and the plates were incubated at room temperature for additional 10 min to stabilize luminescent signal. The luminescence was then read by Envision. The inhibitor dose response curves were generated using normalized cellular IC50 (designated as EC50 in all FIGURES to distinguish from biochemical IC50s) by in house dose response analyses tools. The wells with DMSO vehicle were used as negative controls (0% inhibition). The % inhibition of SHP-2 compounds was calculated as: 100-[(Compound well luminescence counts/DMSO luminescence counts)×100%].
(In general: ATP-based viability assays read luminescence as a measure of living cells.)
For the molecule `Cc1nc(N2CCC3(CCC[C@H]3N)CC2)n2ccnc2c1-c1cnc(N)c(Cl)c1Cl` [Example 27], the EC50 was found to be 180 nM.

In a further test the target is SHP-2 full length protein (Homo sapiens (Human), UniProt Q06124). Description: SHP-2 biochemical DiFMUP pseudosubstrate-fluorogenic assay. The conditions noted are these: 0.2 nM SHP-2, 1 μM IRS-1 activator peptide, 50 μM DiFMUP; read-out: SHP2 IC50. Here is the method: SHP-2 Biochemical Assay Materials Recombinant SHP-2 full length protein was generated in house. SHP-2 protein tyrosine phosphatase (PTP) domain protein (Catalog number SPR0217-20 ug), NaCl (Catalog number S6546-1L), and KCl (Catalog number 60142-500 mL) were purchased from Sigma-Aldrich (St. Louis, Mo.). IRS-1_[…](dPEG8)[…] peptide […]) was custom made by AnaSpec (Fremont, Calif.). DiFMUP substrate (Catalog number D6567), EDTA (Catalog number E177-500 mL), DTT (Catalog number P2325), and 384-well black polystyrene non-binding surface (Catalog number 3820) were purchased from Fisher Scientific (Hanover Park, Ill.). HEPES (Catalog number 15630-080) was purchased from Life Technologies (Pleasanton, Calif.), and Tween-20 (Catalog number 95059-250) was purchased from VWR (Radnor, Pa.). Method Inhibition of SHP-2 activity by small molecule inhibitors was monitored by a biochemical DiFMUP pseudosubstrate-fluorogenic assay. […] The reaction mix was added to the 384-well non-binding plate which had been pre-spotted with 1:3 serial diluted compounds from 10,000-0.005 nM, and incubated at room temperature for 90 min. DiFMUP substrate at final concentration of 50 μM was then added to the wells and incubated for additional 30 min at room temperature. The final reaction volume was 20 μl/well. […] The inhibitor dose response curves were generated using normalized IC50 regression curve fitting by in house dose response analysis tools. The wells with DMSO vehicle were used as controls (100% signal). The percent (%) control of SHP-2 compound was calculated as: (Compound well fluorescence counts/DMSO fluorescence counts)×100%.
SHP-2 full length protein, sequence (Q06124 whole entry): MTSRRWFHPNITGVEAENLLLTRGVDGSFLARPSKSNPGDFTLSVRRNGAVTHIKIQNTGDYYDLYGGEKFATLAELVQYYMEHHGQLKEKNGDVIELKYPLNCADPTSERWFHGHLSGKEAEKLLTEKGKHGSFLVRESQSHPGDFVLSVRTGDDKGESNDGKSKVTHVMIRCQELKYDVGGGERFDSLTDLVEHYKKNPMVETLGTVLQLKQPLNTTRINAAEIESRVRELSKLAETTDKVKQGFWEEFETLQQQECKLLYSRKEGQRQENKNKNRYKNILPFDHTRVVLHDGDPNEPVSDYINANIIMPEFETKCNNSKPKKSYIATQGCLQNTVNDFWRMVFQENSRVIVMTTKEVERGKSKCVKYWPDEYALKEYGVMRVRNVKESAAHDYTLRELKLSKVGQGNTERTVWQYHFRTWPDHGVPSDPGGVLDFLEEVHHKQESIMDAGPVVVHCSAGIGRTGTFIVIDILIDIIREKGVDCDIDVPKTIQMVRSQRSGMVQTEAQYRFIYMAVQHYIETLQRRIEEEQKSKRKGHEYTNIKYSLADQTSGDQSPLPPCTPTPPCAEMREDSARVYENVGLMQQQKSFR
For `Cc1nc(N2CCC3(CCC[C@H]3N)CC2)n2ccnc2c1-c1cccc2cc[nH]c12` [Example 3], the IC50 is 86 nM.
Take `Cc1nc(N2CCC3(CCC[C@H]3N)CC2)n2ccnc2c1-c1ccncc1` [Example 4, (R)-8-(7-methyl-8-(pyridin-4-yl)imidazo[1,2-c]pyrimidin-5-yl)-8-azaspiro[4.5]decan-1-amine]: the IC50 was found to be 1800 nM.
As for `Cc1nc(N2CCC3(CCC[C@H]3N)CC2)n2ccnc2c1-c1ccccn1` [Example 6, (R)-8-(7-methyl-8-(pyridin-2-yl)imidazo[1,2-c]pyrimidin-5-yl)-8-azaspiro[4.5]decan-1-amine], the half-maximal inhibitory concentration (IC50) amounted to 5400 nM.
Regarding `Cc1nc(N2CCC3(CCC[C@H]3N)CC2)n2ccnc2c1-c1ccccc1Cl` [Example 8, (R)-8-(8-(2-chlorophenyl)-7-methylimidazo[1,2-c]pyrimidin-5-yl)-8-azaspiro[4.5]decan-1-amine], the IC50 amounted to 26 nM.
Regarding `Cc1cnn(C)c1-c1c(C)nc(N2CCC3(CCC[C@H]3N)CC2)n2ccnc12` [Example 14, (R)-8-(8-(1,4-dimethyl-1H-pyrazol-5-yl)-7-methylimidazo[1,2-c]pyrimidin-5-yl)-8-azaspiro[4.5]decan-1-amine], the IC50 was over 10000 nM.
Regarding `Cc1nc(N2CCC3(CCC[C@H]3N)CC2)n2ccnc2c1-c1cc(N)ncc1Cl` [Example 16, (R)-8-(8-(2-amino-5-chloropyridin-4-yl)-7-methylimidazo[1,2-c]pyrimidin-5-yl)-8-azaspiro[4.5]decan-1-amine], the IC50 turned out to be 570 nM.
`Cc1nc(N2CCC3(CCC[C@H]3N)CC2)n2ccnc2c1Sc1ccc(N)nc1C(F)(F)F` [Example 17, (R)-8-(8-((6-amino-2-(trifluoromethyl)pyridin-3-yl)thio)-7-methylimidazo[1,2-c]pyrimidin-5-yl)-8-azaspiro[4.5]decan-1-amine]: the IC50 came out at 9.9 nM.
Consider `Cc1nc(N2CCC3(CCC[C@H]3N)CC2)n2ccnc2c1-c1cccnc1C(F)(F)F` [Example 19, (R)-8-(7-methyl-8-(2-(trifluoromethyl)pyridin-3-yl)imidazo[1,2-c]pyrimidin-5-yl)-8-azaspiro[4.5]decan-1-amine], for which the IC50 is over 10000 nM.
Still for that read-out and setting: to `Cc1noc(C)c1-c1c(C)nc(N2CCC3(CCC[C@H]3N)CC2)n2ccnc12` [Example 20] belongs over 10000 nM; to `Cc1nc(N2CCC3(CCC[C@H]3N)CC2)n2ccnc2c1-c1ccccc1C(F)(F)F` [Example 21, (R)-8-(7-methyl-8-(2-(trifluoromethyl)phenyl)imidazo[1,2-c]pyrimidin-5-yl)-8-azaspiro[4.5]decan-1-amine], over 10000 nM; to `Cc1nc(N2CCC3(CCC[C@H]3N)CC2)n2ccnc2c1-c1cccnc1` [Example 22, (R)-8-(7-methyl-8-(pyridin-3-yl)imidazo[1,2-c]pyrimidin-5-yl)-8-azaspiro[4.5]decan-1-amine], 1700 nM.
With `Cc1nc(N2CCC3(CCC[C@H]3N)CC2)n2ccnc2c1-c1ccnc(C(F)(F)F)c1` [Example 24, (R)-8-(7-methyl-8-(2-(trifluoromethyl)pyridin-4-yl)imidazo[1,2-c]pyrimidin-5-yl)-8-azaspiro[4.5]decan-1-amine], the IC50 was over 10000 nM.
On to `Cc1nc(N2CCC3(CC2)C[C@H](O)C[C@H]3N)n2ccnc2c1-c1cccc(Cl)c1Cl` [Example 34, (2S,4R)-4-amino-8-(8-(2,3-dichlorophenyl)-7-methylimidazo[1,2-c]pyrimidin-5-yl)-8-azaspiro[4.5]decan-2-ol], for which the IC50 is 3.3 nM.
Regarding `C[C@@H]1OCC2(CCN(c3ncc(Sc4ccc(N)nc4C(F)(F)F)c4nccn34)CC2)[C@@H]1N` [Example 37, (3S,4S)-8-(8-((6-amino-2-(trifluoromethyl)pyridin-3-yl)thio)imidazo[1,2-c]pyrimidin-5-yl)-3-methyl-2-oxa-8-azaspiro[4.5]decan-4-amine], the IC50 worked out at 17 nM.
Take `CC1(CN)CCN(c2ncc(Sc3cccc(Cl)c3Cl)c3nccn23)CC1` [Example 43, (1-(8-((2,3-dichlorophenyl)thio)imidazo[1,2-c]pyrimidin-5-yl)-4-methylpiperidin-4-yl)methanamine]: the half-maximal inhibitory concentration (IC50) came to 23 nM.
For the molecule `CC1(N)CCN(c2ncc(Sc3ccccc3)c3nccn23)CC1` [Example 49, 4-methyl-1-(8-(phenylthio)imidazo[1,2-c]pyrimidin-5-yl)piperidin-4-amine], the IC50 was 7200 nM.
Turning to `Nc1cc(C(F)(F)F)c(Sc2cnc(N3CCC4(CCC[C@H]4N)CC3)n3ccnc23)cn1` [Example 50, (R)-8-(8-((6-amino-4-(trifluoromethyl)pyridin-3-yl)thio)imidazo[1,2-c]pyrimidin-5-yl)-8-azaspiro[4.5]decan-1-amine], the IC50 stood at 7500 nM.
`Nc1ccc(Sc2cnc(N3CCC4(CCC[C@H]4N)CC3)n3ccnc23)c(C(F)(F)F)n1` [Example 51, (R)-8-(8-((6-amino-2-(trifluoromethyl)pyridin-3-yl)thio)imidazo[1,2-c]pyrimidin-5-yl)-8-azaspiro[4.5]decan-1-amine]: the IC50 stood at 15 nM.
Same read-out and setting: to `Nc1cc(Sc2cnc(N3CCC4(CCC[C@H]4N)CC3)n3ccnc23)c(C(F)(F)F)cn1` [Example 53, (R)-8-(8-((2-amino-5-(trifluoromethyl)pyridin-4-yl)thio)imidazo[1,2-c]pyrimidin-5-yl)-8-azaspiro[4.5]decan-1-amine] belongs 12 nM; to `N[C@@H]1CCCC12CCN(c1ncc(Sc3cncnc3C(F)(F)F)c3nccn13)CC2` [Example 54, (R)-8-(8-((4-(trifluoromethyl)pyrimidin-5-yl)thio)imidazo[1,2-c]pyrimidin-5-yl)-8-azaspiro[4.5]decan-1-amine], 4800 nM.
On to `NC1CCCCN(c2ncc(Sc3cccc(Cl)c3Cl)c3nccn23)C1` (stereo not shown) [Example 59, 1-(8-((2,3-dichlorophenyl)thio)imidazo[1,2-c]pyrimidin-5-yl)azepan-3-amine], for which the IC50 is over 10000 nM.
`Cc1nc(N2CCC3(CCC[C@H]3N)CC2)n2ncnc2c1-c1cccc(Cl)c1Cl` [Example 60, (R)-8-(8-(2,3-dichlorophenyl)-7-methyl-[1,2,4]triazolo[1,5-c]pyrimidin-5-yl)-8-azaspiro[4.5]decan-1-amine]: the IC50 came to 97 nM.
Still for that read-out and setting: to `Cc1nnc2c(Sc3cccc(Cl)c3Cl)cnc(N3CCC(C)(CN)CC3)n12` [Example 64, (1-(8-((2,3-dichlorophenyl)thio)-3-methyl-[1,2,4]triazolo[4,3-c]pyrimidin-5-yl)-4-methylpiperidin-4-yl)methanamine] belongs 800 nM; to `Cc1nc(N2CCC3(CCC[C@H]3N)CC2)n2cnnc2c1-c1cccc(Cl)c1Cl` [Example 65, (R)-8-(8-(2,3-dichlorophenyl)-7-methyl[1,2,4]triazolo[4,3-c]pyrimidin-5-yl)-8-azaspiro[4.5]decan-1-amine], 20 nM.
Consider `C[C@@H]1OCC2(CCN(c3ncc(Sc4nccc5ccccc45)c4nccn34)CC2)[C@@H]1N` [Example 118, (3S,4S)-8-(8-(isoquinolin-1-ylthio)imidazo[1,2-c]pyrimidin-5-yl)-3-methyl-2-oxa-8-azaspiro[4.5]decan-4-amine], for which the IC50 was 550 nM.
Take `C[C@@H]1OCC2(CCN(c3ncc(Sc4ccnc5cc(C#N)ccc45)c4nccn34)CC2)[C@@H]1N` [Example 125, 4-((5-((3S,4S)-4-amino-3-methyl-2-oxa-8-azaspiro[4.5]decan-8-yl)imidazo[1,2-c]pyrimidin-8-yl)thio)quinoline-7-carbonitrile]: the IC50 was 51 nM.
On to `C[C@@H]1OCC2(CCN(c3ncc(Sc4ccnc5cc(Cl)ccc45)c4nccn34)CC2)[C@@H]1N` [Example 134, (3S,4S)-8-(8-((7-chloroquinolin-4-yl)thio)imidazo[1,2-c]pyrimidin-5-yl)-3-methyl-2-oxa-8-azaspiro[4.5]decan-4-amine], for which the IC50 was 9 nM.

By EC50 is commonly meant the concentration giving half of the maximal effect. What is called IC50 is the concentration needed to halve the response being measured.
